Reference: patent publication US9321762B2, “Quinazoline compounds, method for preparing the same and use thereof” (DEVELOPMENT CENTER FOR BIOTECHNOLOGY, priority 2013, dated 2016)
Read-outs that look alike come from different tables or passages of the source.

What was measured:
VEGFR2 kinase = biological target: T1, VEGFR2 kinase (Homo sapiens, UniProt P35968); assay: VEGFR2 radiometric kinase assay; type: biochemical; details: given as bound; 100 μM ATP; read-out: Inhibition activity, IC50 VEGFR2
T1 construct: VEGFR2 kinase domain alone, Millipore; purchased Millipore
T1 sequence (P35968 834-1162 limits assumed): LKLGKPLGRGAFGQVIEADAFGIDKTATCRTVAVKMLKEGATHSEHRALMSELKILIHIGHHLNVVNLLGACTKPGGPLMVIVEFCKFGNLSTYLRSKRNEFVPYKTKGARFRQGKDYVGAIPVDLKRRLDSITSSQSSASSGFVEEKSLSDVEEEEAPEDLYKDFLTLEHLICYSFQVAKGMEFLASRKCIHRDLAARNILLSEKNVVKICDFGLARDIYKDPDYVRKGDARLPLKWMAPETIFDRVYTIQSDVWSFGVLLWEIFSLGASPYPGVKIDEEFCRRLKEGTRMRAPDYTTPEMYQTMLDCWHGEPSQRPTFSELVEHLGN
Experimental: (§1) The inhibitory activity against VEGFR2 or EGFR was determined by radiometric kinase assay. The experimental condition for VEGFR2 kinase assay was 6.25 ng of recombinant VEGFR2 kinase (VEGFR2 kinase domain alone, Millipore), 5 μg of substrate Poly(Glu-Tyr) (4:1, Sigma), kinase reaction buffer (20 mM MOPS pH 7.0, 1 mM EDTA, 5% glycerol, 0.01% Brij-35, 0.1% β-mercaptoethanol, 1 mg/mL BSA, 100 μM ATP, and 0.1 μCi per well [^33P] ATP (specific activity 3000 Ci/mmol, PerkinElmer)), and the test compound (diluted with 4% DMSO) or DMSO alone (as a control) in a final volume of 25 μL. Reactions were incubated at 30° C. for 30 min and stopped by adding 3% phosphoric acid, harvested onto a 96-well GF/B UniFilter (PerkinElmer) using a unifilter harvester (PerkinElmer), and counted with a TopCount microplate scintillation counter (PerkinElmer).
(§2) Results of inhibition activity against VEGFR2 and EGFR kinases by the selected compounds, which have IC50 values on B-Raf kinase <300 nM, are summarized in Table 6.

EGFR kinase = biological target: T2, EGFR kinase (Homo sapiens, UniProt P00533); assay: EGFR radiometric kinase assay; type: biochemical; details: 100 μM ATP, read-out: Inhibition activity, IC50 EGFR
T2 construct: EGFR kinase domain alone, Millipore; purchased Millipore
T2 sequence (P00533 712-979 limits assumed): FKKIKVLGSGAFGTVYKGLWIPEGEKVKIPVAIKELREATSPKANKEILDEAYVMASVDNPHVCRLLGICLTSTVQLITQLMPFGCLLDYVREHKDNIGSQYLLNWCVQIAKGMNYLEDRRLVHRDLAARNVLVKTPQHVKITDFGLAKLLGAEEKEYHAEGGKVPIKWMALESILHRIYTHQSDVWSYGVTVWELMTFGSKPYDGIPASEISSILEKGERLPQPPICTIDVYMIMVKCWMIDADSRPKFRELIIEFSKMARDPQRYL
Experimental: as §1
The experimental condition for EGFR kinase assay was 25 ng of EGFR kinase (EGFR kinase domain alone, Millipore), 3 μg of the substrate poly(Glu-Tyr), (Sigma), kinase reaction buffer (10 mM MOPS pH 7.0, 0.3 mM EDTA, 0.5% glycerol, 0.001% Brij-35, 10 mM MnCl2, 0.1 mg/ml BSA, 100 μM ATP, and 0.1 μCi per well [^33P]ATP (specific activity 3000 Ci/mmol, PerkinElmer)), and the test compound (diluted with 4% DMSO) or DMSO (as a control) in a final volume of 25 μL. Reactions were incubated at 30° C. for 30 min and stopped by adding 3% phosphoric acid, harvested onto a 96-well GF/B UniFilter (PerkinElmer) using a unifilter harvester (PerkinElmer), and counted with a TopCount microplate scintillation counter (PerkinElmer).
as §2

B-Raf kinase = biological target: T3, B-Raf kinase (Homo sapiens, UniProt P15056); assay: B-Raf kinase assay ([33P] incorporation into MEK1(K97R)); type: biochemical; details: class symbols; 8 μM ATP; read-out: IC50 against B-Raf kinase
T3 construct: purchased Upstate Biotechnology
T3 sequence (P15056 whole entry): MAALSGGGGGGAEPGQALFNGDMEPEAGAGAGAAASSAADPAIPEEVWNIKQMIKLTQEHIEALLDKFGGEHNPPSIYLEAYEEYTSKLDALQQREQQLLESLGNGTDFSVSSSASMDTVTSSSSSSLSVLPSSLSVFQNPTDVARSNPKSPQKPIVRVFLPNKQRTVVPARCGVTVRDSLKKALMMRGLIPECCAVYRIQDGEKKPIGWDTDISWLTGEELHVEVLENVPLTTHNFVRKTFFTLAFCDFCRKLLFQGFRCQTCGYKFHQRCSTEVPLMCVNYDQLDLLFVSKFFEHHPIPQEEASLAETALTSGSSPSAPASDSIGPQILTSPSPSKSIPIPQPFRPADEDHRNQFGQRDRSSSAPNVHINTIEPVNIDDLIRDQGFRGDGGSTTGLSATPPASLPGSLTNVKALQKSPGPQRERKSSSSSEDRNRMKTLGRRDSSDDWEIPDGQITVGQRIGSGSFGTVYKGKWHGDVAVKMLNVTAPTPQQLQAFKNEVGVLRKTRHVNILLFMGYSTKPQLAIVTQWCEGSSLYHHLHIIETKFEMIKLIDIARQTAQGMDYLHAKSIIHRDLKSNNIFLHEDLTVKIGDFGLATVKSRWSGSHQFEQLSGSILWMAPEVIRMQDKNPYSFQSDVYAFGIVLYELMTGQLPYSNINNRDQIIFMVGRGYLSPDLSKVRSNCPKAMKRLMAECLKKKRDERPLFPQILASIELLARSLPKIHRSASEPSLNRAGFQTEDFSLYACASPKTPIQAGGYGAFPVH
Method in brief: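 Recombinant B-Raf (5 ng) phosphorylating 500 ng MEK1(K97R) with 8 μM ATP plus [33P]ATP, pH 7.5 Tris buffer, 30 min at 30 °C. Radiolabel incorporation counted by filter-binding scintillation; IC50 from 3-fold serial dilutions run in duplicate.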

[1] = system: A375 melanoma cells and COLO205 colon cancer cells; assay: Cell proliferation assay (CellTiter-96); type: cell-based; details: Homo sapiens; A375 or COLO205, 72 hours treatment; read-out: Cytotoxicity IC50 for A375 or COLO205
Experimental: The anti-proliferative activities of compounds of formula (I) against B-Raf(V600E) mutant human cancer cell lines, A375 melanoma cells and COLO205 colon cancer cells, were measured using the CellTiter™-96 assay kit (Promega) following the manufacturer's instructions. In brief, the cells were maintained in DMEM containing 10% FCS and incubated at 37° C. in 5% CO2 atmosphere. Cells were plated at a density of 2,000 cells/well on a 96-well plate and incubated for 24 h. Then, these cells were treated with different concentrations of the test compounds and incubated for another 72 hours. At the end of the incubation, CellTiter™-96 Aqueous One Solution Reagent (Promega) was added and incubated for another 4.0 hours. Cell viability was determined by measuring absorbance at 490 nm using EMax® microplate reader (Molecular Devices). Data were processed and analyzed using GraphPad Prism.

B-Raf(V600E) kinase = biological target: T4, B-Raf(V600E) kinase (Homo sapiens, UniProt P15056, V600E); assay: B-Raf(V600E) kinase assay ([33P] incorporation into MEK1(K97R)); type: biochemical; details: class symbols; 8 μM ATP; read-out: IC50 against B-Raf(V600E) kinase
T4 construct: purchased Upstate Biotechnology
T4 sequence (P15056 whole entry V600E): as the sequence (P15056 whole entry) above, with V600E counted along it
Experimental: (§3) Inhibition of kinase activity by a test compound disclosed herein was estimated by quantifying the amount of [^33P] incorporation of a substrate in the presence of the test compound. Standard assay conditions were 5 ng of recombinant B-Raf(V600E) kinase (Upstate Biotechnology) with 500 ng MEK1 (K97R) in assay buffer (8 μM ATP, 0.5 μCi [^33P] ATP (specific activity 3000 Ci/mmol, PerkinElmer), 50 mM Tris/HCl (pH7.5), and 1 mM EGTA, 1 mM Na3VO4, 1% 2-mercaptoethanol, 0.1% Brij 35, and 0.2 mg/ml BSA), and the test compound (diluted with 4% DMSO) or DMSO alone (as a control) in a final volume of 25 μL. Reactions were incubated at 30° C. for 30 min and stopped by adding 3% phosphoric acid, harvested onto a 96-well GF/B UniFilter (PerkinElmer) using a unifilter harvester (PerkinElmer), and counted with a TopCount microplate scintillation counter (PerkinElmer). The IC50 values of inhibitors were determined after carrying out assays at 3-fold serially diluted concentrations of each compound in duplication. The results were analyzed using linear regression software (GraphPad Prism 4; GraphPad Software Inc.).

C-Raf kinase = biological target: T5, C-Raf kinase (Homo sapiens, UniProt P04049); assay: C-Raf kinase assay ([33P] incorporation into MEK1(K97R)); type: biochemical; details: class symbols; 8 μM ATP; read-out: IC50 against C-Raf kinase
T5 construct: purchased Upstate Biotechnology
T5 sequence (P04049 whole entry): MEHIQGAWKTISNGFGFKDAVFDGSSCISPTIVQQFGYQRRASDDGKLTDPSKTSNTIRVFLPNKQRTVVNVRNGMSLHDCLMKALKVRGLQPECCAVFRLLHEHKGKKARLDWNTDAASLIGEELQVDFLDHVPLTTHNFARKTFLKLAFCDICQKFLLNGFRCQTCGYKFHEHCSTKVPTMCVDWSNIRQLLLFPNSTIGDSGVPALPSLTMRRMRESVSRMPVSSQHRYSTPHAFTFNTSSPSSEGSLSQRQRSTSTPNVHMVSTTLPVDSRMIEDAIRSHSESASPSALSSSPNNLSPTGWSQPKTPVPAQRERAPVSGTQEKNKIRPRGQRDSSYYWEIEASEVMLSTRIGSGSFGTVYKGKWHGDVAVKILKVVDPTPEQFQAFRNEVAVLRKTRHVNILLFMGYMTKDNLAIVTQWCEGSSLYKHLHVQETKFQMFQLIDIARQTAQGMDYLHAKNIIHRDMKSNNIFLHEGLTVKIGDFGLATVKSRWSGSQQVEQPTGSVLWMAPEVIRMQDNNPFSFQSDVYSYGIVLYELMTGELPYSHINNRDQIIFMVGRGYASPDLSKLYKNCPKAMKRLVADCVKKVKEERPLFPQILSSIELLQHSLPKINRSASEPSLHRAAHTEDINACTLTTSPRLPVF
Experimental: as §3, with “were 2” for “were 5”, “recombinant C-Raf” for “recombinant B-Raf(V600E)”

| IC50 (VEGFR2 kinase) | IC50 (EGFR kinase; class symbols) | IC50 (B-Raf kinase) | IC50 (B-Raf(V600E) kinase) | IC50 (C-Raf kinase) | IC50 (EGFR kinase; given as bound) | Compound | IC50 [1] |
| --- | --- | --- | --- | --- | --- | --- | --- |
| > 3000 nM | 300 to 1000 nM | < 300 nM | < 300 nM | 1000 to 10000 nM |  | CCCS(=O)(=O)Nc1ccc(F)c(Nc2ncnc3ccc(-c4ccc(OCCN(C)C)nc4)cc23)c1F [compound 35, N-(3-(6-(6-(2-(dimethylamino)ethoxy)-pyridin-3-yl)quinazolin-4-ylamino)-2,4-difluorophenyl)propane-1-sulfonamide] | < 2000 nM |
| > 3000 nM | 1000 to 3000 nM | < 300 nM | < 300 nM | 300 to 1000 nM |  | CCCS(=O)(=O)Nc1ccc(F)c(Nc2ncnc3ccc(-c4cccc(F)n4)cc23)c1F [compound 36, N-(2,4-difluoro-3-(6-(6-fluoropyridin-2-yl)-quinazolin-4-ylamino)phenyl)propane-1-sulfonamide] | < 2000 nM |
| > 3000 nM | 300 to 1000 nM | < 300 nM | < 300 nM | 300 to 1000 nM |  | CCCS(=O)(=O)Nc1ccc(F)c(Nc2ncnc3ccc(-c4cccc(OC)n4)cc23)c1F [compound 37, N-(2,4-difluoro-3-(6-(6-methoxypyridin-2-yl)quinazolin-4-ylamino)phenyl)propane-1-sulfonamide] | < 2000 nM |
| > 3000 nM | 1000 to 3000 nM | < 300 nM | < 300 nM | 300 to 1000 nM |  | CCCS(=O)(=O)Nc1ccc(F)c(Nc2ncnc3ccc(-c4cccc(OCCOC)n4)cc23)c1F [compound 38, N-(2,4-difluoro-3-(6-(6-(2-methoxyethoxy)pyridin-2-yl)quinazolin-4-ylamino)phenyl)propane-1-sulfonamide] | < 2000 nM |
| > 3000 nM |  | < 300 nM | < 300 nM | 1000 to 10000 nM | > 3000 nM | CCCS(=O)(=O)Nc1ccc(F)c(Nc2ncnc3ccc(-c4cccc(OCCN(C)C)n4)cc23)c1F [compound 39, N-(3-(6-(6-(2-(dimethylamino)ethoxy)-pyridin-2-yl)quinazolin-4-ylamino)-2,4-difluorophenyl)propane-1-sulfonamide] | < 2000 nM |
| > 3000 nM |  | < 300 nM | < 300 nM | < 300 nM | > 3000 nM | O=S(=O)(CCCF)Nc1ccc(F)c(Nc2ncnc3ccc(-c4cccnc4F)cc23)c1F [compound 44, N-(2,4-difluoro-3-(6-(2-fluoropyridin-3-yl)quinazolin-4-ylamino)phenyl)-3-fluoropropane-1-sulfonamide] | < 2000 nM |
| > 3000 nM |  | < 300 nM | < 300 nM | 1000 to 10000 nM | > 3000 nM | CCCS(=O)(=O)Nc1ccc(F)c(Nc2ncnc3ccc(-c4ccnc(OCCN(C)C)c4)cc23)c1F [compound 45, N-(3-(6-(2-(2-(dimethylamino)ethoxy)-pyridin-4-yl)quinazolin-4-ylamino)-2,4-difluorophenyl)propane-1-sulfonamide] | < 2000 nM |
| > 3000 nM |  | < 300 nM | < 300 nM | < 300 nM | > 3000 nM | CCCS(=O)(=O)Nc1ccc(F)c(Nc2ncnc3ccc(-c4cncc(F)c4)cc23)c1F [compound 46, N-(2,4-difluoro-3-(6-(5-fluoropyridin-3-yl)quinazolin-4-ylamino)phenyl)propane-1-sulfonamide] | < 2000 nM |
| > 3000 nM |  | < 300 nM | 300 to 1000 nM | 300 to 1000 nM | > 3000 nM | CCCS(=O)(=O)Nc1ccc(F)c(Nc2ncnc3ccc(-c4cnc(N)nc4)cc23)c1F [compound 50, N-(3-(6-(2-aminopyrimidin-5-yl)quinazolin-4-ylamino)-2,4-difluorophenyl)propane-1-sulfonamide] | < 2000 nM |
| > 3000 nM |  | < 300 nM | < 300 nM | < 300 nM | > 3000 nM | CCCS(=O)(=O)Nc1ccc(F)c(Nc2ncnc3ccc(-c4cccnc4Cl)cc23)c1F [compound 57, N-(3-(6-(2-chloropyridin-3-yl)-quinazolin-4-ylamino)-2,4-difluorophenyl)propane-1-sulfonamide] | < 2000 nM |
| > 3000 nM |  | < 300 nM | < 300 nM | < 300 nM | > 3000 nM | CCCS(=O)(=O)Nc1ccc(F)c(Nc2ncnc3ccc(-c4cnc(OC)c([N+](=O)[O-])c4)cc23)c1F [compound 58, N-(2,4-difluoro-3-(6-(6-methoxy-5-nitropyridin-3-yl)quinazolin-4-ylamino)phenyl)propane-1-sulfonamide] | < 2000 nM |
| > 3000 nM | 300 to 1000 nM | < 300 nM | < 300 nM | < 300 nM |  | CCCS(=O)(=O)Nc1ccc(F)c(Nc2ncnc3ccc(-c4cccc(C(F)(F)F)n4)cc23)c1F [compound 62, N-(2,4-difluoro-3-(6-(6-(trifluoromethyl)pyridin-2-yl)quinazolin-4-ylamino)phenyl)propane-1-sulfonamide] | < 2000 nM |
| > 3000 nM | 300 to 1000 nM | < 300 nM | < 300 nM | < 300 nM |  | CCCS(=O)(=O)Nc1ccc(F)c(Nc2ncnc3ccc(-c4cccc(C#N)n4)cc23)c1F [compound 63, N-(3-(6-(6-cyanopyridin-2-yl)quinazolin-4-ylamino)-2,4-difluorophenyl)propane-1-sulfonamide] | < 2000 nM |
